This note sets out measurements from patent publication US4125538A, “Substituted 5-phenyl-2,3,4,5-tetrahydro-1,4-benzoxazepines” (Bristol-Myers Company, priority 1977, dated 1978).

The subject of experiment [1] is mouse hot plate. The experiment is described as follows: Mouse hot plate (thermal analgesic test). The note with it: conventional thermal analgesic test. Format: in vivo. From the text:
(§1) The analgesic profile for BL-[…] and nefopam resembles that of the narcotic antagonist analgesics rather than the narcotic drugs. […] Nevertheless,both BL-[…] and nefopam differ from the antagonist action of naloxone. […] These findings indicate that BL-[…] and nefopam act on different receptor sites from those affected by the antagonist analgesics.

The test system of experiment [2] is phenylquinone-induced writhing in the mouse. Put plainly: Phenylquinone-induced writhing test in the mouse. The class given is in vivo. The conditions noted are these: for ED50: Mus musculus; for analgesic activity (in words): mouse, in vivo. The method, then: Compounds of formula I, and homologous and analogous compounds, were tested for analgesic activity by means of the phenylquinone-induced writhing test in the mouse, using the known analgesic, nefopam (5 methyl-1-phenyl-3,4,5,6-tetrahydro-1H-2,5-benzoxazocine), as a comparison standard. The method used was essentially that described by Siegmund et al. [Proc. Soc. exp. Biol. N. Y. 95, 729 (1957)]. Compounds were administered either subcutaneously (15 min) or orally (25 min) prior to the intraperitoneal injection of phenylquinone (2 mg/kg). […] The dose which produced a 50 percent reduction in the number of writhes, as compared to the control group, was called the ED50.
BL-R845 and nefopam were compared in additional phenylquinone-induced writhing tests in the mouse and rat, by various routes of administration.

In experiment [3] the test system is rodent writhing. Put plainly: Rodent writhing tests. The note with it: in vivo. From the text:
BL-[…] and nefopam were compared in additional phenylquinone-induced writhing tests in the mouse and rat, by various routes of administration. The analgesic profile for BL-[…] and nefopam resembles that of the narcotic antagonist analgesics rather than the narcotic drugs. […] Nevertheless,both BL-[…] and nefopam differ from the antagonist action of naloxone. […] These findings indicate that BL-[…] and nefopam act on different receptor sites from those affected by the antagonist analgesics.

For experiment [4], the system named is rat tail flick. Put plainly: Rat tail flick (thermal analgesic test). The class given is in vivo. The conditions noted are these: conventional thermal analgesic test.
Source text: as §1

The subject of experiment [5] is cough response in male guinea-pigs. Put plainly: Antitussive activity in male guinea-pigs (electrically stimulated cough). Format: in vivo, guinea-pig. The conditions noted are these: for inhibition in vivo at 10 mg/kg: Cavia porcellus, sc, 10 mg./kg. subcutaneously, cough tested at 30, 60 and 120 min, values of 30 or less not significantly different from saline controls, considered inactive or insufficiently active; for antitussive activity (in words): guinea pig, in vivo. The method, then: Compounds of formula I, and homologous and analogous compounds, were also tested for antitussive activity in male guinea-pigs, using a modification of the procedure of Friebel and Hahn [Med. Pharmacol. exp., 14, 78 (1966)]. Under general anesthesia, two stainless steel wires (0.2 mm diameter), stripped of their enamel insulation at the points of contact with the trachea, were wrapped around the trachea about 8 mm apart and then threaded under the skin and out through the back of the neck, one on each side. After 24 hrs, test animals were placed in a clear plastic cage and the cough threshold was determined by means of electrical stimulation. The following stimulation parameters were used: delay -- 0.01 msec, duration -- 0.6 msec and frequency -- 300 Hz. The minimal voltage (range 60-120 V) necessary to elicit a cough in less than 6 sec was determined. Each guinea-pig was stimulated 5 times at 30 sec intervals employing the predrug stimulation parameters at 30, 60 and 120 min following drug administration. A test animal was considered to be protected if more than 6 sec were required to produce a cough. Compounds were administered at a dosage of 10 mg./kg. subcutaneously. The percent inhibition of cough response was calculated as follows: % Inhibition = (A-B)/(A) × 100 a = number of coughs requiring <6 sec. stimulation after saline. B = number of coughs requiring <6 sec. stimulation after drug.

In experiment [6] the test system is cough in dogs. The experiment is described as follows: Antitussive activity in the dog (method of Stefko and Benson). The note with it: for ED50: Canis lupus familiaris.
In experiment [7] the test system is phenylquinone-induced writhing in the rat. Put plainly: Phenylquinone-induced writhing test in the rat. Format: in vivo. The conditions noted are these: Table 4, rats. An excerpt: BL-[…] and nefopam were compared in additional phenylquinone-induced writhing tests in the mouse and rat, by various routes of administration.
On the technique in general: In writhing tests, fewer writhes than in controls are read as antinociception.

Experiment [8] has as its system analgesic activity, naloxone antagonism. Put plainly: Block of analgesic activity by naloxone. The conditions noted are these: naloxone as antagonist. The class given is in vivo.
Source text: as §1

The mark [9] stands for this setting: central, Table 4, mice, intraventricular, read-out: Phenylquinone-induced Writhing ED50, mice, intraventricular.
[10] abbreviates: sc, Table 4, mice, subcutaneous, read-out: Phenylquinone-induced Writhing ED50, mice, subcutaneous.
Setting [11] is: Table 4, mice, oral, read-out: Phenylquinone-induced Writhing ED50, mice, oral.
Setting [12] is: po, read-out: ED50, antitussive, oral.
Where [13] appears, read: sc, read-out: ED50, antitussive, s. c.
The mark [14] stands for this setting: oral, read-out: Phenylquinone-induced Writhing ED50, rats, oral.
Where [15] appears, read: sc, subcutaneous, read-out: Phenylquinone-induced Writhing ED50, rats, subcutaneous.
[16] abbreviates: sc, Table 1, s.c. 15 min before phenylquinone 2 mg/kg i.p., 50 percent reduction in number of writhes vs control, read-out: ED50.

Structures can show the parent of a compound that is named as a salt. Where two headings read alike, the source gives them in different places.

As usually defined, the ED50 is the dose that gives a 50% effect, or the effect in half of the subjects. The inhibition in vivo is the percentage by which the read-out fell short of the control. Lower therefore signals a response near the control.

As to `CN1CCOC(c2ccccc2)c2ccccc2C1` (stereo not shown) [nefopam, 5 methyl-1-phenyl-3,4,5,6-tetrahydro-1H-2,5-benzoxazocine, reference compound], the “analgesic activity, mouse hot plate” value in experiment [1] is given as “relative lack of analgesic activity”. Also, the ED50 was 0.14 mg/kg in experiment [2] (setting [9]); 1.1 mg/kg in experiment [2] (setting [10]); 22 mg/kg in experiment [2] (setting [11]); greater than 20 mg/kg in experiment [6] (setting [12]); 2 to 5 mg/kg in experiment [6] (setting [13]); 9.6 mg/kg in experiment [7] (setting [14]). Also, the ED50 in experiment [7] (setting [15]) came to 1 mg/kg. Also, the “activity in the rodent writhing tests” value in experiment [3] is “good activity”. The “analgesic activity, rat tail flick” value in experiment [4] is listed as “relative lack of analgesic activity”. Besides, the inhibition in vivo at 10 mg/kg in experiment [5] was 0%. The “effect of naloxone on analgesic activity” value in experiment [8] is “does not block the analgesic activity”.
With `COc1ccc2c3c1O[C@H]1[C@@H](O)C=C[C@H]4[C@@H](C2)N(C)CC[C@@]341` [codeine], the ED50 turned out to be 7.8 mg/kg in experiment [6] (setting [12]) and 1.5 mg/kg in experiment [6] (setting [13]).
As to `CCN(CC)CCN1CCOc2ccc(Cl)cc2C1c1ccccc1.Cl.Cl` (stereo not shown) [BL-5372, 7-Chloro-4-(2-diethylaminoethyl)-5-phenyl-2,3,4,5-tetrahydro-1,4-benzoxazepine dihydrochloride], the ED50 in experiment [2] (setting [16]) came out at 10 mg/kg. In addition, the “analgesic activity (in words)” value in experiment [2] is “little or no such activity”. For the same molecule, in experiment [5], the inhibition in vivo at 10 mg/kg is 0% and the “antitussive activity (in words)” value is reported as “little or no such activity”.
In the case of `Cl.Cl.Clc1ccc2c(c1)C(c1ccccc1)N(CCN1CCCC1)CCO2` (stereo not shown) [BL-5397, 7-Chloro-4-(2-pyrrolidinoethyl)-5-phenyl-2,3,4,5-tetrahydro-1,4-benzoxazepine dihydrochloride], in experiment [2] (setting [16]), the ED50 amounted to 2.5 mg/kg. In experiment [2], the “analgesic activity (in words)” value is “valuable analgesic activity”. This molecule also came in with an inhibition in vivo at 10 mg/kg in experiment [5] of 0%.
Regarding `CNCCN1CCOc2ccc(Cl)cc2C1c1ccccc1` (stereo not shown) [BL-5366, 7-Chloro-4-(2-methylaminoethyl)-5-phenyl-2,3,4,5-tetrahydro-1,4,-benzoxazepine dihydrochloride], the median effective dose (ED50) in experiment [2] (setting [16]) was 13 mg/kg. Further, the “analgesic activity (in words)” value in experiment [2] is “little or no such activity”. Further, in experiment [5], the inhibition in vivo at 10 mg/kg is 0% and the “antitussive activity (in words)” value is reported as “little or no such activity”.
Take `CN1CCN(CCN2CCOc3ccc(Cl)cc3C2c2ccccc2)CC1.Cl.Cl.Cl` (stereo not shown) [BL-5451, 7-Chloro-4-[2-(4-methylpiperazino)ethyl]-5-phenyl-2,3,4,5-tetrahydro-1,4-benzoxazepine trihydrochloride]: the ED50 in experiment [2] (setting [16]) was 19 mg/kg. Besides, 10 mg/kg produced 0% inhibition in vivo in experiment [5].
For `CN(C)CCN1CCOc2ccc(Cl)cc2C1c1ccccc1.Cl.Cl` (stereo not shown) [BL-R845, 7-Chloro-4-(2-dimethylaminoethyl)-5-phenyl-2,3,4,5-tetrahydro-1,4-benzoxazepine dihydrochloride], in experiment [1], the “analgesic activity, mouse hot plate” value was “relative lack of analgesic activity”. Further, the ED50 was 0.31 mg/kg in experiment [2] (setting [9]); 1.3 mg/kg in experiment [2] (setting [10]); 11.6 mg/kg in experiment [2] (setting [11]); 2 to 5 mg/kg in experiment [6] (setting [12]); 0.2 to 0.5 mg/kg in experiment [6] (setting [13]); 12.8 mg/kg in experiment [7] (setting [14]). Moreover, the ED50 in experiment [7] (setting [15]) turned out to be 1 mg/kg. Further, the “analgesic activity (in words)” value in experiment [2] is “effective analgesic”. In experiment [3], the “activity in the rodent writhing tests” value is given as “good activity”. For the same molecule, the “analgesic activity, rat tail flick” value in experiment [4] was “relative lack of analgesic activity”. This molecule also returned an inhibition in vivo at 10 mg/kg in experiment [5] of 48%. Moreover, in experiment [5], the “antitussive activity (in words)” value was “effective analgesic and antitussive agent”. In addition, in experiment [6] (dog, both routes of administration), the “antitussive activity compared with nefopam or codeine” value was “more active than nefopam or codeine”. Besides, the “effect of naloxone on analgesic activity” value in experiment [8] is “does not block the analgesic activity”.
Regarding `Cl.Cl.Clc1ccc2c(c1)C(c1ccccc1)N(CCN1CCOCC1)CCO2` (stereo not shown) [BL-5405, 7-Chloro-4-(2-morpholinoethyl)-5-phenyl-2,3,4,5-tetrahydro-1,4-benzoxazepine dihydrochloride], in experiment [2] (setting [16]), the ED50 was greater than 40 mg/kg. The molecule also showed an inhibition in vivo at 10 mg/kg in experiment [5] of 30%.
With `Cl.Cl.Clc1ccc2c(c1)C(c1ccccc1)N(CCN1CCCCC1)CCO2` (stereo not shown) [BL-5409, 7-Chloro-4-(2-piperidinoethyl)-5-phenyl-2,3,4,5-tetrahydro-1,4-benzoxazepine dihydrochloride], the ED50 in experiment [2] (setting [16]) was 9 mg/kg. The molecule further came in with an inhibition in vivo at 10 mg/kg in experiment [5] of 0%.
